PubChem BioAssay (NCI)
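These data come from cells grown in 96-well plates and exposed to compound for 48 hours at five concentrations. The concentration for 50% growth inhibition is given as GI50. TGI: concentration producing complete growth inhibition.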

Key:
Assay in all cases: inhibition of tumour cell growth, NCI panel, 48 h
[1] = test system: RPMI-8226 leukemia
[2] = test system: K-562 leukemia
[3] = test system: M14 melanoma
[4] = test system: SK-MEL-28 melanoma
[5] = test system: MDA-MB-231 breast
[6] = test system: DU-145 prostate
[7] = test system: CAKI-1 renal
[8] = test system: ACHN renal
[9] = test system: SR leukemia
[10] = test system: CCRF-CEM leukemia

COc1ccc2c(c1)CC[C@@H]1[C@@H]2CC[C@]2(C)C=C(/C=C/C(=O)c3ccccc3)C[C@@H]12 gave a GI50 [1] of 24.3 µM, a TGI [1] of 54.4 µM and a GI50 [2] of 18.5 µM. The TGI [2] was 46.4 µM, the GI50 [3] was 16.6 µM and the TGI [3] was 34.3 µM. It also gave a GI50 [4] of 16.2 µM, a TGI [4] of 31.7 µM and a GI50 [5] of 17.2 µM. The TGI [5] was 32.1 µM, the GI50 [6] was 14.6 µM and the TGI [6] was 28.4 µM. For the same compound, the GI50 [7] was 20.3 µM, the TGI [7] was 38.3 µM and the GI50 [8] was 16.4 µM. It also gave a TGI [8] of 31.1 µM, a GI50 [9] of 16.6 µM and a TGI [9] of 47.4 µM. The GI50 [10] was 32.6 µM and the TGI [10] was 84.7 µM.
In the case of Oc1ccc(Cl)cc1-c1cc(-c2ccc(F)cc2)n[nH]1, the GI50 [1] is reported as 1.36 µM, the TGI [1] is reported as 4.58 µM and the GI50 [2] is reported as 2.8 µM. For the same compound, the TGI [2] was 27.1 µM, the GI50 [3] was 3.5 µM and the TGI [3] was 17.2 µM. For the same compound, the GI50 [4] was 8.35 µM, the TGI [4] was over 100 µM and the GI50 [5] was 1.19 µM. For the same compound, the TGI [5] was 4.35 µM, the GI50 [6] was 3.04 µM and the TGI [6] was 10.8 µM. It also gave a GI50 [7] of 1.77 µM, a TGI [7] of 9.14 µM and a GI50 [8] of 2.34 µM. It also gave a TGI [8] of 7.2 µM, a GI50 [9] of 1.24 µM and a TGI [9] of over 100 µM. It also gave a GI50 [10] of 0.452 µM and a TGI [10] of 4.12 µM.
